Source: patent publication US8889156B2, “Calcium-binding agents induce hair growth and/or nail growth” (priority 2009, dated 2014)

What was measured:
[1] = literature values quoted for comparison; cited from earlier work
[2] = HA binding assay (pulldown of fluorescein-labeled peptides, Langmuir isotherm fit); conditions: fit of Langmuir equation
Method: Fluorescein-labeled DSS-containing peptides of various lengths were subjected to pulldown assays as follows: Samples containing varying concentrations of fluorescein-labeled peptide (0-100 μM) and a fixed amount (0.3 mg) of HA nanocrystals with a specific surface area of 100 m^2/g (Berkeley Advanced Biomaterials, Berkeley, Calif.) were prepared. Measurements were taken of the absorbance of the labeled peptide at 488 nm (the peak absorbance of the fluorescein label) before and after exposure to the HA. The amount of peptide bound was calculated by comparing the ratio of the final (Af) and initial (Ai) absorbances to the initial concentration (C0) [Cbound=(Af/Ai)C0]. Plots were generated of the amount of peptide bound per meter squared of HA surface area vs. concentration of unbound peptide at equilibrium. The resulting isotherms were fit to the Langmuir isotherm, x/m=(KANmaxCeq)/(1+KACeq), where x/m represents the molar amount of peptide bound per unit of HA surface area, KA is the affinity constant of the peptide for the HA surface (L/Mol), Nmax is the maximum surface concentration (mol/m^2), and Ceq is the molar concentration of unbound peptide at equilibrium (Calis et al. (1995) Pharm Res., 12: 1072-1076).
In order to quantitatively assess the strength of the DSS-HA interaction as well as to determine the roles of peptide length and sequence on binding, fluorescein-labeled, DSS-containing peptides of various lengths were subjected to pulldown assays as described in “Materials and Methods.”
The experimental data were fit to the Langmuir isotherm, which describes the binding of molecules to surfaces with the conditions that (1) all binding sites have the same affinity for the peptide and (2) the peptide will form a monolayer on the surface but cannot accumulate to higher levels (Atkins (1994) Physical chemistry. Freeman, New York). The excellent fit of the Langmuir isotherm to the experimental data validates these conditions, and the constants obtained from this analysis were used for comparisons between peptides. As shown in FIG. 7A and summarized in Table 6, both the binding affinity (KA) and the monolayer concentration (NMax) of the various peptides increased with the number of DSS repeats per peptide. Additionally, several variant peptides were tested (FIGS. 7B, 7C, Table 6): a peptide containing a longer side chain at the first position (4ESS (SEQ ID NO:34)), peptides containing a more sterically hindered hydroxyl group at the second and third positions (4DTT (SEQ ID NO:36), 4NTT (SEQ ID NO:38), 4ETT (SEQ ID NO:37)), peptides lacking a charged group at the first position (4NSS (SEQ ID NO:35), 8ASS (SEQ ID NO:26)), and peptides lacking hydroxyl groups at the second and third positions (DAA-8 (SEQ ID NO:40), 8NAA (SEQ ID NO:41)).

[3] = Tissue specific binding of labeled peptides to sections of human teeth (CLSM); conditions: 5(6)-carboxyfluorescein-labeled peptide, ten minutes
Excerpt: In order to investigate the tissue specificity of DSS peptide binding to tooth tissue, sections of human teeth were exposed to DSS peptides and variants, then imaged by CLSM. The peptides utilized for these experiments were 8DSS (SEQ ID NO:33), 8ASS (SEQ ID NO:26), 8DAA (SEQ ID NO:40), 8NAA (SEQ ID NO:41), 4DSS (SEQ ID NO:31), 4ESS (SEQ ID NO:34), 4NSS (SEQ ID NO:35), 4DTT (SEQ ID NO:36), 4ETT (SEQ ID NO:37), 4NTT (SEQ ID NO:38), and 6DSS (SEQ ID NO:32). Sagittal sections of human teeth extracted during normal clinical practice were polished and then incubated for ten minutes in a solution of the appropriate 5(6) carboxyfluorescein-labeled peptide (12.5pM) containing 10 mM NaCl and 50 mM HEPES, pH 7.0. Control samples were prepared without peptide. Samples were washed extensively after treatment and imaged by CLSM using blue laser illumination (A=488 nm) and a FITC emission filter, with identical camera and microscope settings for each sample. For each section, multiple scans were collected and assembled in an automated mode to generate panels of images representing an area of 13×13 mm, sufficient in most cases to encompass the whole section. […] Significant binding was also seen to the edges of the pulp cavity.

[4] = Binding of labeled peptides to carious lesions in teeth (CLSM); set-up: species or system human; conditions: labeled peptide, settings optimized per sample
Excerpt: Sections of human teeth containing obvious carious lesions, which consist of demineralized enamel, were polished and exposed to 5(6)-carboxyfluorescein-labeled DSS peptides and variants. The sections were washed extensively and imaged by CLSM using blue laser illumination (A=488 nm) and a FITC emission filter, with microscope and camera settings adjusted for each sample to optimize the signal detected from each peptide. The images were examined to identify the relative levels of peptide binding in healthy versus carious tissue. […] Given their ability to remineralize at sites of enamel degradation, they can also be used to initiate remineralization at sites of enamel degradation such as caries or injury sites without causing inappropriate nucleation on healthy tissue surfaces.

[5] = test system: mineralizing mouse bone marrow nodules; assay: Binding to mineralizing mouse bone marrow cultures (fluorescence microscopy); type: cell-based; conditions: labeled peptide, continuous treatment for 3 weeks
Method: Mouse bone marrow cultures were grown to confluence in DMEM+10% FBS and then treated continuously for 3 weeks with either 2.5 p.M 5(6)-carboxyfluorescein-labeled 6DSS (SEQ ID NO:32) or 2.5 p.M 5(6)-carboxyfluorescein-labeled peptide #3-1 (control peptide) in α-MEM+10% FBS+50 p.g/mL ascorbic acid 4 mM β-glycerophosphate. Cultures were imaged by fluorescence microscopy using a FITC excitation/emission filter set.
Having established that (DSS)n-containing peptides are able to actively bind HA, we sought to determine whether they would bind to emerging sites of mineralization in biologically derived tissue. Mouse bone marrow (MBM) cultures, cultured under osteogenic conditions, were treated continuously for 3 weeks with either labeled 6DSS (SEQ ID NO:32) peptide or labeled peptide #3-1 (non-calcium-binding control peptide). Cultures were imaged by fluorescence microscopy using a FITC excitation/emission filter set.

[6] = Free peptide with CaCl2 and NaHPO4: formation of HA crystals in solution; conditions: 25 μM free peptide
[7] = Binding of labeled peptide to sagittally sectioned adult human molars (CLSM, Example 6); conditions: fluorescein-labeled peptide, 10 min
Method: For binding experiments, sagittally sectioned adult human molars were incubated for 10 min in a solution of 12.5 p.M 5(6)-carboxyfluorescein-labeled 6DSS (SEQ ID NO:32) peptide containing 10 mM NaCl and 50 mM HEPES, pH 7.0. Control samples were prepared without peptide. Samples were rinsed after treatment and imaged by confocal laser scanning microscopy (CLSM) with illumination by a blue Kr/Ar laser (λ=488 nm) and a FITC emission filter. To test binding of DSS-containing peptides to biological tissue, sagittally sectioned human teeth were incubated treated with 6DSS (SEQ ID NO:32) (control samples were prepared without peptide), washed, and imaged by CLSM.

N[C@@H](CC(=O)O)C(=O)O [Asp, aspartic acid]
HA binding affinity [1]: 220 M⁻¹

N[C@@H](CCC(=O)O)C(=O)O [glutamic acid]
HA binding affinity [1]: 206 M⁻¹

N[C@@H](COP(=O)(O)O)C(=O)O [phosphoserine]
HA binding affinity [1]: 5,000-13,200 M^−1

N[C@@H](CO)C(=O)O [serine]
HA binding affinity [1]: 317,000 M^−1

DSS DSS DSS DSS DSS DSS (DSSDSSDSSDSSDSSDSS; synthetic calcium-binding peptide 6DSS)
Nmax (maximum monolayer surface concentration) [2]: 1.3 × 10^−7 ± 3 × 10^−9 mol/m^2
KA (binding affinity for HA) ([2]; fluorescein-labeled peptide 0-100 μM, 0.3 mg HA nanocrystals): 272,000 ± 26,000 M^−1
tissue pattern of binding in the tooth section [3]: bound primarily to the mantle dentin
level of binding (staining) to tooth surfaces ([3]; identical settings): the greatest levels of staining
specificity of binding to carious lesions versus healthy enamel [4]: highly specific binding to carious lesions
strength of staining of carious lesions [4]: exceptionally strong staining of carious lesions
staining of mineralizing MBM nodules [5]: bright staining of the mineralizing MBM nodules
enhancement of HA crystal formation by free peptide at subcritical CaHPO4 concentrations [6]: this was not observed
binding to dentin [7]: intense fluorescent staining
binding to enamel [7]: no binding to the enamel was seen

LIKHILHRL [#3-1, reference compound]
staining of mineralizing MBM nodules [5]: no binding seen
